Experimental data as given in US20200223839A1, “FLUORO-CONTAINING COMPOUNDS, USE AND PREPARATION THEREOF” (JIANGSU YINGKEBEITA YIYAOKEJI CO. LTD, priority 2017, published 2020).

Experiments:
MDA-MB-468 cell line = assay: Anti-tumor activity against MDA-MB-468 cell line (CCK-8 test); type: cell-based; conditions: Homo sapiens, MDA-MB-468, 72 h
Method: A cryo tube was removed from liquid nitrogen. As quickly as possible, the cells were thawed by placing the vial in a 37° C. water bath and gently shaking the vials. The cells were transferred to medium tube, which containing 5 mL medium, and were centrifuged at 1000 rpm for 6 min. The supernatant containing dead cells and cell debris was discarded. 1 mL of pre-warmed medium with 10% FBS was add and the solution was re-suspended. The plate was placed in 37° C. and 5% CO2 incubator. The medium was changed next day.
Cells in logarithmic growth stage were taken and culture medium was discarded. 1 mL 0.25% trypsin solution was added for twice. The trypsin solution was removed and the 0.5 ml 0.25% trypsin solution was added to the cell flask. The plate was placed in 37° C. and 5% CO2 incubator for a few minutes until the cells recovered. 1 mL medium was added to stop digestion. The liquid was transferred by pipette for experiment.
the cells were suspended and the medium was discarded. 1 mL 0.25% trypsin solution was added for twice and the trypsin digestion was centrifuged. The cells were suspended with the culture medium, count and adjusted to the appropriate concentration.
The cell suspension was added to the 96-well plate with a volume of 100 uL per well, as shown in Tab. 5, and was placed in 37° C., 5% CO2 incubator overnight.
Preparation of Compounds Working Solution.
The test compounds were dissolved in DMSO at 10 mM with sterile filter (0.22 um, nelon, JET). After filtering, the solution were continuously diluted by three times with DMSO. A total of six concentration were prepared, as shown below.
6 uL compound solution was added to 594 uL medium and the solution was added to 96-well plate as shown and cultured for 72 h in CO2 incubator.
A CCK-8 solution was prepared according to the instructions and the 96-well plate was taken out and the original medium discarded. 100 uL cck-8 solution was added to each well in the 96-well plate. Photoabsorption data were read by TECAN enzyme marker after a period of time.
IC (%)=[Ac-As]/[Ac-Ab]*100% • As: Experimental well (containing culture medium, cell, CCK-8 and compound); • Ac: Controlled well (containing culture medium, cell and CCK-8); • Ab: Blank well (Only containing medium and CCK-8).

[1] = system: MDA-MB-468 cells (human breast cancer) implanted in BALB/c-nu mice; assay: In vivo xenograft study, MDA-MB-468, tumor sizes; conditions: MDA-MB-468 xenograft in BALB/c-nu mice, FIGS. 2 and 4
Method: (§1) MDA-MB-468 cells (human breast cancer) in its log growth phase were implanted in BALB/c-nu mice. When the tumor volume was approximately 50-150 mm^3, the mice were randomized into four groups, each include 8 mice. The four groups were treated with vehicle, Ref. 1, 4f, and Ref. 2, respectively, and the tumor sizes were measured two to three times each week and the mice were also weighted.

MDA-MB-468 = assay: Cell culture and cytotoxicity assay (CTG), MDA-MB-468; type: cell-based, human; conditions: Homo sapiens; MDA-MB-468, exposure 72 hours, CTG
Method: (§2) The assayed compounds each was dissolved in DMSO with a final concentration of 10 mM or 40 mM and stored at −20° C. Tumor cell lines A549 (7,000 cells/well), BT474 (12,000 cells/well), MDA-MB-468 (12,000 cells/well), and HCC1937 (6,000 cells/well) were seeded on 96-well plates. And the cells were pre-incubated at 37° C./5% CO2 for 24 hours. The cells were exposed to different concentrations of the assay compounds (from 400 μM to 782 nM, from 200 μM to 391 nM, from 100 μM to 196 nM, and from 50 μM to 98 nM) for the following time:
(§3) After incubation, 100 μL from each well was discarded and CTG base (Proega, G7571, 50 μL) was added and the mixture was agitated for 2 minutes. The mixtures were stored in a dark room for 10 minutes and the viability was analyzed with Multiskan microplate reader.

A549 = assay: Cell culture and cytotoxicity assay (CTG), A549; type: cell-based; conditions: Homo sapiens, A549, exposure 72 hours
Method: as §2, §3

[2] = In vivo mouse model, MDA-MB-453, mice weights; conditions: MDA-MB-453 mouse model, FIG. 7, dose of this group not given
Source text: MDA-MB-453 cells (human breast cancer) were also studied in a mouse model. […] FIG. 7.

[3] = In vivo xenograft study, MDA-MB-468, mice weights; conditions: MDA-MB-468 xenograft in BALB/c-nu mice, FIGS. 3 and 5
Method: as §1

HCC1937 = assay: Cell culture and cytotoxicity assay (CTG), HCC1937; type: cell-based; conditions: Homo sapiens, HCC1937, exposure 72 hours
Method: as §2, §3

BT474 = assay: Cell culture and cytotoxicity assay (CTG), BT474; type: cell-based; conditions: Homo sapiens, BT-474, BT474, exposure 96 hours
Method: as §2, §3

[4] = In vivo mouse model, Hep3B, mice weights; conditions: FIG. 9, dose of this group not given
Source text: Hep3B cells (human liver cancer) were also studied in a mouse model. […] FIG. 9.

Structure (SMILES) | IC50 (MDA-MB-468 cell line) [µM] | IC50 (MDA-MB-468) [nM] | IC50 (BT474) [nM] | also measured
CCNc1ccc(S(=O)(=O)Nc2nc3ccccc3nc2Nc2ccc3nsnc3c2)cc1F [Compound 10] | 7.09 |  |  | 
COc1ccc(Cl)c(Nc2nc3ccccc3nc2NS(=O)(=O)c2cccc(NC(=O)C(C)(C)N)c2)c1 [Ref. 2, reference compound] | 4.91 | 12500 to 25000 | 25000 to 50000 | anticancer activity (tumor sizes) versus vehicle [1]: no significant difference; IC50 (A549): 25000 to 50000 nM; weight changes [2]: no difference in weight changes; weight changes of mice [3]: no significant weight changes; IC50 (HCC1937): 50000 to 100000 nM; weight changes [4]: no difference in weight changes
Cc1ccc(S(=O)(=O)Nc2nc3ccccc3nc2Nc2ccc3nsnc3c2)c(F)c1 [Compound 4, N-[3-(benzo[1,2,5]thiadiazol-5-ylamino)-quinoxalin-2-yl]-2-fluoro-4-methyl-benzenesulfonamide] |  | 4250 | > 50000 | IC50 (HCC1937): 114000 nM
Cc1ccc(S(=O)(=O)Nc2nc3ccccc3nc2Nc2ccc3nsnc3c2)cc1 [Ref. 1, reference compound] | 2.67 | 2060 | 28200 | anticancer activity (tumor sizes) versus vehicle [1]: no significant difference; IC50 (A549): > 50000 nM; weight changes of mice [3]: no significant weight changes

More lines, main results first:

IC50 (MDA-MB-468 cell line) [µM] | Structure (SMILES) | IC50 (MDA-MB-468) [nM] | IC50 (BT474) [nM] | also measured
0.469 | O=S(=O)(Nc1nc2ccccc2nc1Nc1ccc2nsnc2c1)c1ccc(F)c(F)c1 [Compound 7] |  |  | 
0.811 | O=S(=O)(Nc1nc2ccccc2nc1Nc1ccc2nsnc2c1)c1ccc(Br)c(F)c1 [Compound 8] |  |  | 
1.4 | COc1ccc(S(=O)(=O)Nc2nc3ccccc3nc2Nc2ccc3nsnc3c2)cc1F [Compound 9] |  |  | 
